Columns and labels:
[1] = molecular target: His-USP7-UBL1/2 (control protein) (Homo sapiens, UniProt Q93009); experiment: Intrinsic tryptophan fluorescence of control protein; assay type: binding; conditions: 3.2 µM protein
His6-TTD-PHD = molecular target: T1, His6-TTD-PHD (Homo sapiens, UniProt Q96T88); experiment: Intrinsic tryptophan fluorescence of His6-TTD-PHD; assay type: binding; conditions: 3.2 µM protein
T1 construct: made in house; host or cells: Rosetta (DE3) E. coli, pMCSG7
T1 sequence (Q96T88 123-366): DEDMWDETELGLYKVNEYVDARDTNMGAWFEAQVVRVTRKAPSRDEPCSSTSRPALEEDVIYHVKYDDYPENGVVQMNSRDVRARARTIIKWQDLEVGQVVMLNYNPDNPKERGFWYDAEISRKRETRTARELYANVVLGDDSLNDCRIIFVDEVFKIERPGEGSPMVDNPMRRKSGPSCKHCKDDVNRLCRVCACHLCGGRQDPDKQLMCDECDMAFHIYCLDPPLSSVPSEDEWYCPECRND
Protocol: The untagged TTD was diluted to 30 µM by buffer (50 mM sodium phosphate, pH 7.5, 150 mM NaCl) with or without 60 µM of H3K9me3 peptide (1–20) (Anaspec). 10 µL of diluted TTD was added into 384-well flat bottom black plate (Greiner, Cat# 781086). […] The final concentration of TTD was 15 µM and the H3K9me3 peptide (if included) was 30 µM. The experiment was performed at room temperature. […] After compound addition, the intrinsic tryptophan fluorescence was analyzed by the Tecan Infinite M1000 plate reader (excitation 280 nm, emission 334 nm). […] Tryptophan fluorescence monitors 2 , 4 - lutidine binding to His 6 - TTD, His 6 - TTD - PHD, and C - FLAG - UHRF 1 - FL . 2 , 4 - Lutidine dose - dependently quenched the tryptophan fluorescence of TTD (purple circle), while only started to show quenching effect against His 6 - TTD - PHD at mM concentration (blue diamond) . 2 , 4 - Lutidine had no effect on the fluorescence of C - FLAG - UHRF 1 - FL and the control USP 7 - UBL 1 / 2 protein . n= 3 for each data point . (Note : the standard deviation error bars are included, but the error values are often extremely small in this assay) . […]

Sequence of His-USP7-UBL1/2 (control protein) (Q93009 560-776 limits assumed): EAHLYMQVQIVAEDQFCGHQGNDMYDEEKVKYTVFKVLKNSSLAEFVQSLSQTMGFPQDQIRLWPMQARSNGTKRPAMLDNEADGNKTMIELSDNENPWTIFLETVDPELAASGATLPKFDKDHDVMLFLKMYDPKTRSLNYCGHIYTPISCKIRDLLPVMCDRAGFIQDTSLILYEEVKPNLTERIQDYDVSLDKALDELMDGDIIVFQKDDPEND

With `Cc1ccnc(C)c1` [2,4-lutidine] the “effect on tryptophan fluorescence of control protein (in words)” value [1] was “did not inhibit” and the “quenching of His6-TTD-PHD tryptophan fluorescence (in words)” value (His6-TTD-PHD) was “only at close to mM concentrations”.

— PMC7806715, “Discovery of small molecules targeting the tandem tudor domain of the epigenetic factor UHRF1 using fragment-based ligand discovery” (Scientific Reports, 2021)
